From PMC2360155, “Novel retinoic acid metabolism blocking agents have potent inhibitory activities on human breast cancer cells and tumour growth” (British Journal of Cancer, 2007)

How the values were obtained:
RARβ = molecular target: T1, RARβ (Mus musculus, UniProt P22605); assay: Retinoid receptor competition binding assay, RARβ; details: competition with 1.0 nM [3H]-all-trans-RA
T1 construct: expressed in transfected cells; host or cells: CV-1 cells
T1 sequence (P22605 1-448 isoform P22605-3): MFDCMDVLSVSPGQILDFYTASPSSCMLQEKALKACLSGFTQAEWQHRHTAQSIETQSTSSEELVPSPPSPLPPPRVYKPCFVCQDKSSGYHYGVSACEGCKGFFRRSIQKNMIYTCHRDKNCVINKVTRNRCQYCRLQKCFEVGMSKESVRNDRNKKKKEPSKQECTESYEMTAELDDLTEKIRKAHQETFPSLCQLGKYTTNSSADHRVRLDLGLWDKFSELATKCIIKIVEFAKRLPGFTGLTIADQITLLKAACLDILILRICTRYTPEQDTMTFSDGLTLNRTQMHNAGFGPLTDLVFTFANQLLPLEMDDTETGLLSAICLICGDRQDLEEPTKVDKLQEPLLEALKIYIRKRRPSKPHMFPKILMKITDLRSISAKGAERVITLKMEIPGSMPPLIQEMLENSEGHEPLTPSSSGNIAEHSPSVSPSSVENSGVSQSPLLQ

CK 8/18 = assay: Western immunoblotting for CK 8/18 in MCF-7 and T47D cells; type: cell-based, human; details: 6 days; for Effect on expression of CK 8/18 (in words): 5 μM, MCF-7 cells; for Increase in expression of CK 8/18 compared with control: 1 and 5 μM, MCF-7 and T47D cells
Protocol: At the end of the treatment, cells were scrapped and collected by washing with ice-cold PBS in a centrifuge tube. Cells were centrifuged at 2500 r.p.m. for 10 min, the pellet was again washed with ice-cold PBS and centrifuged. The cell pellet was then suspended in chilled cell lysis buffer (0.1 M Tris–HCl, 0.5% Triton X-100, protease inhibitor cocktail) and sonicated on ice for 10–15 s. The homogenate was kept on ice for 30 min and then centrifuged at 13 000 r.p.m. for 30 min. The supernatant was used as cell lysate. The cell lysates were stored at −80°C. Protein concentration of the cell lysates was determined using Bio-Rad protein assay reagents.
Protein lysates from MCF-7 and T47D cells were subjected to sodium dodecyl sulphate–polyacrylamide gel electrophoresis (SDS–PAGE) and immunoblotted for different proteins. Equal amounts of protein (25–50 μg) were subjected to SDS–PAGE at 60 V for 3 h using the mini PROTEAN3 electrophoresis module assembly (Bio-Rad, Hercules, CA, USA), and transferred to nitrocellulose membranes (Hybond ECL, Amersham). Immunodetections were carried out using antibodies against CK 8/18 (1° antibody – 1 : 8000 in 10% milk PBST), E-cadherin (1° antibody – 1 : 1000 in 5% milk in TBST) and ER-α (1° antibody – 1 : 200 in 5% milk PBST) purchased from Santa Cruz Biotechnology Inc. Antibodies against PARP (1° antibody – 1 : 1000 in 5% milk TBST), cyclin- D1 (1° antibody – 1 : 2000 in 10% milk TBST), caspase-9 (1° antibody – 1 : 1000 in 10% milk TBST) and BAD (1° antibody – 1 : 1000 in 5% BSA TBST) were obtained from Cell Signaling Technology. Antibody for β-actin was obtained from Calbiochem (CA, USA). Secondary anti-mouse IgG HRP conjugate antibody was purchased from Calbiochem and Bio-Rad. Secondary anti-rabbit IgG HRP conjugate antibody was bought from Bio-Rad as well as from Kirkegaard and Perry laboratories (Gaithersburg, MD, USA). Immunoreactive bands were visualised using the enhanced chemiluminescence detection reagents and analysis system (Amersham Bioscences) according to the manufacturer's instructions and quantified by densitometry using ImageQuant software version 5.
The effects of these agents on the expression levels of markers associated with differentiation (CK 8/18 and ER-α) were investigated following established procedures ([Jing et al, 1996]; [Korsching et al, 2002]; [Kim and Freeman, 2003]; [Woelfle et al, 2004]). […] At the end of the treatment, cell lysates were prepared and the expression of cytoskeletal proteins CK 8/18 were evaluated by Western immunoblotting. […] Unexpectedly, VN/66-1 and VN/69-1 caused downregulation in the expression of CK 8/18.
Numbers below the blot show fold increase in expression of the protein as analysed by ImageQuant densitometry analysis. […]

MCF-7 cells = test system: MCF-7 cells; parameters: method as in Patel et al. (2004); details: inhibition of cell proliferation by 50%; ref Patel et al. (2004); read-out: Cellular IC50, MCF-7; cited from earlier work
RARα = molecular target: T2, RARα (Mus musculus, UniProt P11416); assay: Retinoid receptor competition binding assay, RARα; parameters: The full-length cDNA clones for RARα, RARβ, RARγ and RXRα were cloned into the prokaryotic expression vector pET29; S-Tag; made in house; host or cells: prokaryotic host (pET29 vector); details: competition with 1.0 nM [3H]-all-trans-RA
T2 sequence (P11416 1-462): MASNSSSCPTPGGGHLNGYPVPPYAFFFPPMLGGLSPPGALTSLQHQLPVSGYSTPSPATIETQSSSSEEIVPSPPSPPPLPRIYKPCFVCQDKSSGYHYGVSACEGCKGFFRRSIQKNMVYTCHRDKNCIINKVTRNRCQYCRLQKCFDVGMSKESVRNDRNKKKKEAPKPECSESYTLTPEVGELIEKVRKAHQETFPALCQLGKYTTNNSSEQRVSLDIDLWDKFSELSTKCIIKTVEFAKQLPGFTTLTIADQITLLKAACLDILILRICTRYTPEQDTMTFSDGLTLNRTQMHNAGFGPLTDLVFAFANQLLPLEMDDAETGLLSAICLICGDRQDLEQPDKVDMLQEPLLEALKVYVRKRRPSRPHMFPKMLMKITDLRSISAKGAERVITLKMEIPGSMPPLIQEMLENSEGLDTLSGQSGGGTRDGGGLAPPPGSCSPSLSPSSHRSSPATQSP

T47D cells = test system: T47D cells; parameters: method as in Patel et al. (2004); details: inhibition of cell proliferation by 50%; ref Patel et al. (2004); read-out: Cellular IC50, T47D; cited from earlier work

Structure (SMILES) | IC50 (RARβ) [nM] | Effect on expression of CK 8/18 (in words) (CK 8/18) | IC50 (MCF-7 cells) [nM] | IC50 (RARα) [nM] | Increase in expression of CK 8/18 compared with control (CK 8/18) | IC50 (T47D cells) [nM]
CC1=C(/C=C/C(C)=C/C=C/C(C)=C\C(=O)Nc2ccc(O)cc2)C(C)(C)CCC1n1ccnc1 (centres unmarked) [VN/69-1] | > 1000 | downregulation | 609 | > 1000 | – | –
CC1=C(/C=C/C(C)=C/C=C/C(C)=C/C(=O)O)C(C)(C)CCC1n1ccnc1 (centres unmarked) [VN/14-1] | 200 | – | 494 | 16 | 2–3 fold | 3
CC1=C(/C=C/C(C)=C/C=C/C(C)=C/C(=O)Nc2ccc(O)cc2)C(C)(C)CCC1n1ccnc1 (centres unmarked) [VN/66-1] | > 1000 | downregulation | 590 | > 1000 | – | 570
CC1=C(/C=C/C(C)=C/C=C/C(C)=C/C(=O)O)C(C)(C)CCC1 [ATRA, all-trans-retinoic acid, reference compound] | – | – | 585 | – | 2–3 fold | 8
